According to ChEMBL document CHEMBL1150474, “Synthesis of new penem dithiocarbamates” (1993):

Experiments:
Type in all cases: functional
Escherichia coli [1] = test: Antibacterial activity against Escherichia coli ATCC 25922
Pseudomonas aeruginosa [2] = test: Antibacterial activity against Pseudomonas aeruginosa ATCC 27853
Pseudomonas aeruginosa [3] = test: Antibacterial activity against Pseudomonas aeruginosa VR5
Staphylococcus aureus [4] = test: Antibacterial activity against Staphylococcus aureus ATCC 25923
Staphylococcus aureus [5] = test: Antibacterial activity against Staphylococcus aureus MR 0.13
Escherichia coli [6] = test: Antibacterial activity against Escherichia coli DC2, hyperpermeable strain

Row | Compound | MIC (Escherichia coli [1]) | MIC (Pseudomonas aeruginosa [2]) | MIC (Pseudomonas aeruginosa [3]) | MIC (Staphylococcus aureus [4]) | MIC (Staphylococcus aureus [5]) | MIC (Escherichia coli [6])
1 | C[C@@H](O)[C@H]1C(=O)N2C(C(=O)[O-])=C(CSC(=S)N(C)Cc3ccccc3)S[C@H]12.[Na+] | > 32 µg/mL | > 32 µg/mL | 32 µg/mL | 0.06 µg/mL | 0.5 µg/mL | 1 µg/mL
2 | C[C@@H](O)[C@H]1C(=O)N2C(C(=O)[O-])=C(CSC(=S)N3CCN(C(=O)c4ccc(O)c(O)c4)CC3)S[C@H]12.[Na+] | > 32 µg/mL | > 32 µg/mL |  | 0.25 µg/mL | 1 µg/mL | 0.5 µg/mL
3 | C[C@@H](O)[C@H]1C(=O)N2C(C(=O)[O-])=C(CSC(=S)N(C)CC(N)=O)S[C@H]12.[Na+] | 8 µg/mL | > 32 µg/mL | 4 µg/mL | 0.12 µg/mL | 0.03 µg/mL | 0.5 µg/mL
4 | C[C@@H](O)[C@H]1C(=O)N2C(C(=O)[O-])=C(CSC(=S)N(C)OCc3ccccc3)S[C@H]12.[Na+] | > 32 µg/mL | > 32 µg/mL | 32 µg/mL | 0.03 µg/mL | 0.12 µg/mL | 2 µg/mL
5 | C[C@@H](O)[C@H]1C(=O)N2C(C(=O)[O-])=C(CSC(=S)N(C)CCc3ccccn3)S[C@H]12.[Na+] | > 32 µg/mL | > 32 µg/mL | > 32 µg/mL | 0.06 µg/mL | 0.12 µg/mL | 2 µg/mL
6 | C[C@@H](O)[C@H]1C(=O)N2C(C(=O)[O-])=C(CSC(=S)N(C)c3ccccc3)S[C@H]12.[Na+] | > 32 µg/mL | > 32 µg/mL | > 32 µg/mL | 0.03 µg/mL | 0.25 µg/mL | 1 µg/mL
7 | C[C@@H](O)[C@H]1C(=O)N2C(C(=O)[O-])=C(CSC(=S)N(C)c3ccccn3)S[C@H]12.[Na+] | > 32 µg/mL | > 32 µg/mL | > 32 µg/mL | 0.06 µg/mL | 0.5 µg/mL | 1 µg/mL
8 | CC(=O)OCCN(CCOC(C)=O)C(=S)SCC1=C(C(=O)[O-])N2C(=O)[C@H]([C@@H](C)O)[C@H]2S1.[Na+] | > 32 µg/mL | > 32 µg/mL | > 32 µg/mL | 0.12 µg/mL | 0.5 µg/mL | 2 µg/mL

More lines, now with the values ahead:

Row | MIC (Escherichia coli [1]) | MIC (Pseudomonas aeruginosa [2]) | MIC (Pseudomonas aeruginosa [3]) | MIC (Staphylococcus aureus [4]) | MIC (Staphylococcus aureus [5]) | MIC (Escherichia coli [6]) | Compound
9 | 8 µg/mL | 32 µg/mL | 0.25 µg/mL | 0.25 µg/mL | 0.12 µg/mL |  | CC1(C)S[C@@H]2[C@H](NC(=O)[C@H](N)c3ccccc3)C(=O)N2[C@H]1C(=O)O.CC1(C)[C@H](C(=O)O)N2C(=O)C[C@H]2S1(=O)=O
10 | > 32 µg/mL | > 32 µg/mL | > 32 µg/mL | 0.03 µg/mL | 0.12 µg/mL | 0.5 µg/mL | C[C@@H](O)[C@H]1C(=O)N2C(C(=O)[O-])=C(CSC(=S)N3CCCC3)S[C@H]12.[Na+]
11 | 4 µg/mL | > 32 µg/mL | 4 µg/mL | 0.03 µg/mL | 0.06 µg/mL | 0.5 µg/mL | C[C@@H](O)[C@H]1C(=O)N2C(C(=O)[O-])=C(CSC(=S)N3CCN(C)CC3)S[C@H]12.[Na+]
12 | 4 µg/mL | > 32 µg/mL | 4 µg/mL | 0.03 µg/mL | 0.03 µg/mL | 2 µg/mL | C[C@@H]([O-])[C@H]1C(=O)N2C(C(=O)[O-])=C(CSC(=S)N3CC[N+](C)(C)CC3)S[C@H]12.[Na+]
13 | 8 µg/mL | > 32 µg/mL | 4 µg/mL | 0.12 µg/mL | 0.25 µg/mL | 4 µg/mL | C[C@@H](O)[C@H]1C(=O)N2C(C(=O)[O-])=C(CSC(=S)N3CCNCC3)S[C@H]12.[Na+]
14 | 32 µg/mL | > 32 µg/mL | 2 µg/mL | 0.25 µg/mL | 0.5 µg/mL | 4 µg/mL | C[C@@H](O)[C@H]1C(=O)N2C(C(=O)[O-])=C(CSC(=S)N(CCO)CCO)S[C@H]12.[Na+]
15 | 16 µg/mL | > 32 µg/mL | 16 µg/mL | 0.12 µg/mL | 0.12 µg/mL | 4 µg/mL | CC(=O)N1CCN(C(=S)SCC2=C(C(=O)[O-])N3C(=O)[C@H]([C@@H](C)O)[C@H]3S2)CC1.[Na+]
16 | 32 µg/mL | > 32 µg/mL | 0.5 µg/mL | 0.03 µg/mL | 0.06 µg/mL | 0.5 µg/mL | C[C@@H](O)[C@H]1C(=O)N2C(C(=O)[O-])=C(CSC(=S)N3CCOCC3)S[C@H]12.[Na+]
17 | 32 µg/mL | > 32 µg/mL | 1 µg/mL | 0.03 µg/mL | 0.06 µg/mL | 0.12 µg/mL | C[C@@H](O)[C@H]1C(=O)N2C(C(=O)[O-])=C(CSC(=S)N(C)C)S[C@H]12.[Na+]
